Data from patent publication US20240317749A1, “THERAPEUTIC COMPOUNDS” (priority 2021, published 2024).
In brackets after ≈: the same amount, converted by molar mass.

Experiments:
[1] = system: N. gonorrhoeae ATCC 49226; test: MIC assay for N. gonorrhoeae, broth microdilution in Todd-Hewitt (TH) broth; format: cell-based; details: Neisseria gonorrhoeae, ATCC49226; Antibacterial Activity against N. gonorrhoeae ATCC 49226 in TH
Excerpt: MIC assays for N. gonorrhoeae were done using the ATCC 49226 strain. The procedure guidelines recommended by the Clinical and Laboratory Standards Institute (CLSI) for the broth microdilution MIC assay were modified by substituting […]. Also, the recommended bacterial inoculum was modified to meet the high inoculum demands needed for N. gonorrhoeae growth. A 96-well plate containing TH broth with 2-fold serial dilution of compounds was inoculated with log-phase bacterial at 2.5×10^7 CFU/mL. The final volume in each well was 200 μL. Each compound was tested in duplicate. The microtiter plates were incubated in an […] environment for 24 hours at 37° C. using the candle jar technique. Then the bacterial growth was tested by reading the plate with a SpectraMax iD5 plate reader (Molecular Devices, Inc.) at 600 nm. The MIC was defined as the lowest compound concentration that inhibited bacteria growth.

[2] = system: E. coli W4573; test: MIC assay, CLSI broth microdilution in CAMH broth; format: cell-based, Escherichia coli
Experimental: (§1) MIC assays for various Gram-negative and Gram-positive strains were conducted in accordance with the CLSI guidelines for broth microdilution. A 96-well plate containing CAMH broth with 2-fold serial dilution of compounds was inoculated with log-phase bacterial at 5×10^5 CFU/mL. The final volume in each well was 100 μL. Each compound was tested in duplicate. The microtiter plates were incubated in an aerobic environment for 18 hours at 37° C. Then the bacterial growth was tested by reading the plate with a SpectraMax iD5 plate reader (Molecular Devices, Inc.) at 600 nm. The MIC was defined as the lowest compound concentration that inhibited bacteria growth.
(§2) The following Gram-negative and Gram-positive strains were used in the aerobic MIC procedure: • P. aeruginosa ATCC 27853 • A. baumannii ATCC 19606 • E. coli ATCC 25922 • E. coli W4573 • E. coli N43 • K. pneumoniae ATCC 10031 • K. pneumoniae ATCC 13883 • S. sonnei ATCC 29930 • P. mirabilis ATCC 29906 • Methicillin-susceptible S. aureus (MSSA) ATCC 19636 • Methicillin-resistant S. aureus (MRSA) ATCC 33951

[3] = system: E. coli ATCC 25922; test: MIC assay, CLSI broth microdilution in CAMH broth; format: cell-based, Escherichia coli
Experimental: as §1, §2

[4] = system: Methicillin-resistant S. aureus (MRSA) ATCC 33591; test: MIC assay, CLSI broth microdilution in CAMH broth; format: cell-based, Staphylococcus aureus
Experimental: as §1, with “growth. […]” for “growth.”

[5] = system: P. aeruginosa ATCC 27853; test: MIC assay, CLSI broth microdilution in CAMH broth; format: cell-based, Pseudomonas aeruginosa; details: P. aeruginosa ATCC 278538
Experimental: as §1, §2

[6] = system: K. pneumoniae ATCC 10031; test: MIC assay, CLSI broth microdilution in CAMH broth; format: cell-based, Klebsiella pneumoniae; details: K. pneumonias ATCC 10031
Experimental: as §1, §2

[7] = system: K. pneumoniae ATCC 13883; test: MIC assay, CLSI broth microdilution in CAMH broth; format: cell-based, Klebsiella pneumoniae; details: K. pneumonias ATCC 13883
Experimental: as §1, §2

[8] = system: Methicillin-susceptible S. aureus (MSSA) ATCC 19636; test: MIC assay, CLSI broth microdilution in CAMH broth; format: cell-based, Staphylococcus aureus
Experimental: as §1, §2

[9] = system: P. mirabilis ATCC 29906; test: MIC assay, CLSI broth microdilution in CAMH broth; format: cell-based, Proteus mirabilis
Experimental: as §1, §2

[10] = system: E. coli N43; test: MIC assay, CLSI broth microdilution in CAMH broth; format: cell-based, Escherichia coli
Experimental: as §1, §2

Nc1nc(N)c2ccc3c(ccn3Cc3ccccc3Br)c2n1 [Example 4, 7-(2-bromobenzyl)-7H-pyrrolo[2,3-h]quinazoline-2,4-diamine]
MIC [1]: 2 µg/mL (≈ 5.43 µM)
Intrinsic MIC in CAMH [2]: 2¤
Intrinsic MIC in CAMH [3]: 4¤
Intrinsic MIC in CAMH [4]: ≤0.125¤
Intrinsic MIC in CAMH [5]: >64¤
Intrinsic MIC in CAMH [6]: <0.125¤
Intrinsic MIC in CAMH [7]: 8¤
Intrinsic MIC in CAMH [8]: ≤0.125¤
Intrinsic MIC in CAMH [9]: >64¤

Nc1nc(N)c2ccc3c(ccn3CC3CCCCC3)c2n1 [Example 27, 7-(cyclohexylmethyl)-7H-pyrrolo[2,3-h]quinazoline-2,4-diamine]
MIC [1]: 4 µg/mL (≈ 13.5 µM)
Intrinsic MIC in CAMH [2]: 2¤
Intrinsic MIC in CAMH [3]: 4¤
Intrinsic MIC in CAMH [4]: ≤0.125¤
Intrinsic MIC in CAMH [5]: >64¤
Intrinsic MIC in CAMH [6]: <0.125¤
Intrinsic MIC in CAMH [7]: 4¤
Intrinsic MIC in CAMH [8]: ≤0.125¤
Intrinsic MIC in CAMH [9]: >64¤

Nc1nc(N)c2ccc3c(ccn3Cc3cc(Br)ccc3F)c2n1 [Example 34, 7-(5-bromo-2-fluorobenzyl)-7H-pyrrolo[2,3-h]quinazoline-2,4-diamine]
MIC [1]: 16 µg/mL (≈ 41.4 µM)
Intrinsic MIC in CAMH [2]: 2¤
Intrinsic MIC in CAMH [4]: ≤0.063¤
Intrinsic MIC in CAMH [5]: >64¤
Intrinsic MIC in CAMH [6]: <0.125¤
Intrinsic MIC in CAMH [7]: 64¤
Intrinsic MIC in CAMH [8]: ≤0.063¤
Intrinsic MIC in CAMH [9]: 64¤

Nc1nc(N)c2ccc3c(ccn3Cc3ccc(Br)cc3Br)c2n1 [Example 35, 7-(2,4-dibromobenzyl)-7H-pyrrolo[2,3-h]quinazoline-2,4-diamine]
MIC [1]: 4 µg/mL (≈ 8.95 µM)
Intrinsic MIC in CAMH [10]: <0.125¤
Intrinsic MIC in CAMH [2]: 8¤
Intrinsic MIC in CAMH [4]: 1¤
Intrinsic MIC in CAMH [5]: >64¤
Intrinsic MIC in CAMH [6]: 0.25¤
Intrinsic MIC in CAMH [7]: >64¤
Intrinsic MIC in CAMH [8]: 0.5¤
Intrinsic MIC in CAMH [9]: >64¤

Nc1nc(N)c2ccc3c(ccn3Cc3ccc(-c4ccccc4C(F)(F)F)cc3)c2n1 [Example 36, 7-((2′-(trifluoromethyl)-[1,1′-biphenyl]-4-yl)methyl)-7H-pyrrolo[2,3-h]quinazoline-2,4-diamine]
MIC [1]: 8 µg/mL (≈ 18.5 µM)
Intrinsic MIC in CAMH [10]: <0.125¤
Intrinsic MIC in CAMH [2]: 8¤
Intrinsic MIC in CAMH [4]: 0.5¤
Intrinsic MIC in CAMH [5]: >64¤
Intrinsic MIC in CAMH [6]: 1¤
Intrinsic MIC in CAMH [7]: >64¤
Intrinsic MIC in CAMH [8]: 0.5¤
Intrinsic MIC in CAMH [9]: >64¤

N#Cc1cc(F)ccc1-c1ccc(Cn2ccc3c4nc(N)nc(N)c4ccc32)cc1 [Example 37, 4′-((2,4-diamino-7H-pyrrolo[2,3-h]quinazolin-7-yl)methyl)-4-fluoro-[1,1′-biphenyl]-2-carbonitrile]
MIC [1]: 1 µg/mL (≈ 2.45 µM)
Intrinsic MIC in CAMH [10]: <0.125¤
Intrinsic MIC in CAMH [2]: 8¤
Intrinsic MIC in CAMH [4]: 0.125¤
Intrinsic MIC in CAMH [5]: >64¤
Intrinsic MIC in CAMH [6]: 0.25¤
Intrinsic MIC in CAMH [7]: >64¤
Intrinsic MIC in CAMH [8]: 0.125¤
Intrinsic MIC in CAMH [9]: >64¤

N#Cc1ccccc1-c1ccc(Cn2ccc3c4nc(N)nc(N)c4ccc32)cc1F [Example 38, 4′-((2,4-diamino-7H-pyrrolo[2,3-h]quinazolin-7-yl)methyl)-2′-fluoro-[1,1′-biphenyl]-2-carbonitrile]
MIC [1]: 0.125 µg/mL (≈ 0.306 µM)
Intrinsic MIC in CAMH [2]: 1¤
Intrinsic MIC in CAMH [4]: ≤0.063¤
Intrinsic MIC in CAMH [5]: >64¤
Intrinsic MIC in CAMH [6]: <0.125¤
Intrinsic MIC in CAMH [7]: 16¤
Intrinsic MIC in CAMH [8]: ≤0.063¤
Intrinsic MIC in CAMH [9]: >64¤

N#Cc1ccccc1-c1ccc(Cn2ccc3c4nc(N)nc(N)c4ccc32)c(F)c1 [Example 39, 4′-((2,4-diamino-7H-pyrrolo[2,3-h]quinazolin-7-yl)methyl)-3′-fluoro-[1,1′-biphenyl]-2-carbonitrile]
Intrinsic MIC in CAMH [10]: ≤0.063¤
Intrinsic MIC in CAMH [2]: 8¤
Intrinsic MIC in CAMH [4]: ≤0.063¤
Intrinsic MIC in CAMH [5]: >64¤
Intrinsic MIC in CAMH [6]: 1¤
Intrinsic MIC in CAMH [7]: >64¤
Intrinsic MIC in CAMH [8]: ≤0.063¤
Intrinsic MIC in CAMH [9]: >64¤

Nc1nc(N)c2ccc3c(ccn3CC#Cc3ccccc3)c2n1 [Example 41, 7-(3-phenylprop-2-yn-1-yl)-7H-pyrrolo[2,3-h]quinazoline-2,4-diamine]
MIC [1]: 8 µg/mL (≈ 25.5 µM)
Intrinsic MIC in CAMH [2]: 2¤
Intrinsic MIC in CAMH [4]: 1¤
Intrinsic MIC in CAMH [5]: >64¤
Intrinsic MIC in CAMH [6]: <0.125¤
Intrinsic MIC in CAMH [7]: 8¤
Intrinsic MIC in CAMH [8]: 0.5¤
Intrinsic MIC in CAMH [9]: >64¤

C#Cc1ccc(Cn2ccc3c4nc(N)nc(N)c4ccc32)cc1 [Example 42, 7-(4-ethynylbenzyl)-7H-pyrrolo[2,3-h]quinazoline-2,4-diamine]
MIC [1]: 8 µg/mL (≈ 25.5 µM)
Intrinsic MIC in CAMH [2]: 4¤
Intrinsic MIC in CAMH [4]: ≤0.063¤
Intrinsic MIC in CAMH [5]: >64¤
Intrinsic MIC in CAMH [6]: <0.125¤
Intrinsic MIC in CAMH [7]: 32¤
Intrinsic MIC in CAMH [8]: ≤0.063¤
Intrinsic MIC in CAMH [9]: 32¤

Nc1nc(N)c2ccc3c(ccn3Cc3ccc(C#Cc4ccccc4)cc3)c2n1 [Example 43, 7-(4-(phenylethynyl)benzyl)-7H-pyrrolo[2,3-h]quinazoline-2,4-diamine]
MIC [1]: > 64 µg/mL
Intrinsic MIC in CAMH [10]: 32¤
Intrinsic MIC in CAMH [2]: >64¤
Intrinsic MIC in CAMH [4]: 2¤
Intrinsic MIC in CAMH [5]: >64¤
Intrinsic MIC in CAMH [6]: >64¤
Intrinsic MIC in CAMH [7]: >64¤
Intrinsic MIC in CAMH [8]: 32¤
Intrinsic MIC in CAMH [9]: >64¤

Nc1nc(N)c2ccc3c(ccn3Cc3cccc(C#Cc4ccccc4)c3)c2n1 [Example 44, 7-(3-(phenylethynyl)benzyl)-7H-pyrrolo[2,3-h]quinazoline-2,4-diamine]
Intrinsic MIC in CAMH [10]: 4¤
Intrinsic MIC in CAMH [2]: >64¤
Intrinsic MIC in CAMH [4]: 1¤
Intrinsic MIC in CAMH [5]: >64¤
Intrinsic MIC in CAMH [6]: 32¤
Intrinsic MIC in CAMH [7]: >64¤
Intrinsic MIC in CAMH [8]: 2¤
Intrinsic MIC in CAMH [9]: >64¤

Nc1nc(N)c2ccc3c(ccn3Cc3cccc(C#Cc4ccccc4C(F)(F)F)c3)c2n1 [Example 45, 7-(3-((2-(trifluoromethyl)phenyl)ethynyl)benzyl)-7H-pyrrolo[2,3-h]quinazoline-2,4-diamine]
Intrinsic MIC in CAMH [10]: 32¤
Intrinsic MIC in CAMH [2]: >64¤
Intrinsic MIC in CAMH [4]: 2¤
Intrinsic MIC in CAMH [5]: >64¤
Intrinsic MIC in CAMH [6]: >64¤
Intrinsic MIC in CAMH [7]: >64¤
Intrinsic MIC in CAMH [8]: 2¤
Intrinsic MIC in CAMH [9]: >64¤

N#Cc1ccccc1-c1ccc(Cn2ccc3c4nc(N)nc(N)c4cnc32)cc1 [Example 49, 4′-((2,4-diamino-7H-pyrrolo[3′,2′:5,6]pyrido[4,3-d]pyrimidin-7-yl)methyl)-[1,1′-biphenyl]-2-carbonitrile]
Intrinsic MIC in CAMH [10]: <0.125¤
Intrinsic MIC in CAMH [2]: >64¤
Intrinsic MIC in CAMH [4]: ≤0.063¤
Intrinsic MIC in CAMH [5]: >64¤
Intrinsic MIC in CAMH [6]: 0.5¤
Intrinsic MIC in CAMH [7]: >64¤
Intrinsic MIC in CAMH [8]: ≤0.063¤
Intrinsic MIC in CAMH [9]: >64¤

Nc1nc(N)c2cnc3c(ccn3Cc3cccc(Br)c3)c2n1 [Example 50, 7-(3-bromobenzyl)-7H-pyrrolo[3′,2′:5,6]pyrido[4,3-d]pyrimidine-2,4-diamine]
Intrinsic MIC in CAMH [10]: ≤0.063¤
Intrinsic MIC in CAMH [2]: 32¤
Intrinsic MIC in CAMH [4]: ≤0.063¤
Intrinsic MIC in CAMH [5]: >64¤
Intrinsic MIC in CAMH [6]: 1¤
Intrinsic MIC in CAMH [7]: >64¤
Intrinsic MIC in CAMH [8]: ≤0.063¤
Intrinsic MIC in CAMH [9]: >64¤
